The values below are quoted from earlier work in US20260272826A1 (THEAPRIN PHARMACEUTICALS, INC., priority 2017, published 2026).

The conditions of data set [1]: tribasic.
The next data set concerns rats. The settings on record: rat, in vivo.
Data set [2] deals with thrombin stimulated thromboxane formulation in whole blood. To be noted: theanine by itself.

Consider `O=C(O)CC(O)(CC(=O)O)C(=O)O` [Citric Acid, 2-hydroxypropane-1,2,3-tricarboxylic acid], for which the “pKa 1” value in data set [1] (first of pKa 1-3) is given as 5.21. In addition, the “pKa 2” value in data set [1] (second of pKa 1-3) is listed as 4.28. The “pKa 3” value in data set [1] (third of pKa 1-3) is listed as 2.92.

Turning to `CCNC(=O)CC[C@H](N)C(=O)O` [L-theanine, N-ethyl-L-glutamine], the solubility in water entry is “soluble in water”. The LD50 toxicity with rats is listed as above 5000 mg/kg. For the same compound, in data set [2], the “inhibition of thrombin stimulated thromboxane formulation” value was “potent inhibitor”.
